The values that follow come from patent US12509421B2, “Preparation and application of deuterated 4-phenyl-4-piperidinols” (priority 2022, dated 2025).

Structures can show the parent of a compound that is named as a salt. Where two headings read alike, the source gives them in different places.

The target of one series is hERG potassium channel (Homo sapiens, UniProt Q12809). Description: hERG potassium channel whole-cell patch clamp (HEK293). It counts as cell-based. On the set-up: expressed in transfected cells; host or cells: HEK293 cell line. The settings on record: for IC50: HEK293 cells stably expressing hERG, whole-cell patch clamp, room temperature, read-out: Half-inhibition concentration of compounds to be tested on hERG (IC50). The gist of the method: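 Whole-cell patch clamp in HEK293 cells at room temperature: tail current elicited by −80 to 30 mV for 2.5 s, then −50 mV for 4 s, every 10 s. Ascending concentrations were gravity-perfused for 5 min each, with each cell's compound-free current as control. IC50 came from nonlinear fit of inhibition.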
A general note: The hERG channel carries a current that helps repolarise heart muscle cells.

The subject of the next series is Female Kunming mice. The settings on record: as disclosed in patent CN201911076305.X; cited from earlier work.

Sequence of hERG potassium channel (Q12809 whole entry, the tested form may be a part): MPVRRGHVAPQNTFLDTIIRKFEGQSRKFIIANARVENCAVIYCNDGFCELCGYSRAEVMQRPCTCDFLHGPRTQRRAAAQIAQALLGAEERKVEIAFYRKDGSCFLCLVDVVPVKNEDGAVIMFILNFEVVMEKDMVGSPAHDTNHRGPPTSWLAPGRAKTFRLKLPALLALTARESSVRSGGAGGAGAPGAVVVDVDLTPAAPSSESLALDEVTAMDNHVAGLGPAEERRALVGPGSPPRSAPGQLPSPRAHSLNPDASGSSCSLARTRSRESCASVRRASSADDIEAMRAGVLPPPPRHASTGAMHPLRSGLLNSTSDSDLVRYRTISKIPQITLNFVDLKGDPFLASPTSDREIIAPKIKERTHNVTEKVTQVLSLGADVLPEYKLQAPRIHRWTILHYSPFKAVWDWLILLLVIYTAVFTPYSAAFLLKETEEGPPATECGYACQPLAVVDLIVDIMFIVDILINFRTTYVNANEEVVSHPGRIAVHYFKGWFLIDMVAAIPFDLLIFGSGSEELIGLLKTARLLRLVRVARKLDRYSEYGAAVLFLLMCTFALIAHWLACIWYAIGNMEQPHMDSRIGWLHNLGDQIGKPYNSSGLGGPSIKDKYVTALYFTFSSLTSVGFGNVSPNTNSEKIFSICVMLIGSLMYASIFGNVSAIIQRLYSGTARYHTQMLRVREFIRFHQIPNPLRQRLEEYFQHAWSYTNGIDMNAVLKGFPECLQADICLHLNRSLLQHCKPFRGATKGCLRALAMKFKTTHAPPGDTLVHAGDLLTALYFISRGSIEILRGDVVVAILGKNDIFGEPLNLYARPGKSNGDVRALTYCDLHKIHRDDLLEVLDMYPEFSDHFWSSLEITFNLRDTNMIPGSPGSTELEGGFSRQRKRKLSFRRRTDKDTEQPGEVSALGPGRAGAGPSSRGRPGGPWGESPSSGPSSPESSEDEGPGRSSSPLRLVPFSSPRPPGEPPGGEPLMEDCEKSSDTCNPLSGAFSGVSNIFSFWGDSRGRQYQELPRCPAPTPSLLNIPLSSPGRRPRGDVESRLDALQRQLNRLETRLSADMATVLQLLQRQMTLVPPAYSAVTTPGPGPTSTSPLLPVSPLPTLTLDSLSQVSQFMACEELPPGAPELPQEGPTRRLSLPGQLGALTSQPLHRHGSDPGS

Turning to `[2H]C([2H])([2H])Oc1cccc([C@]2(O)CCN(S(=O)(=O)Cc3ccccc3)C[C@H]2CN(C([2H])([2H])[2H])C([2H])([2H])[2H])c1` [II-5hydrochloride], on hERG potassium channel, the “hERG inhibition grade” value is reported as “μM((Weak inhibition)” and the IC50 came out at 23.9 µM.

With `[2H]C([2H])([2H])N(C[C@@H]1CN(S(=O)(=O)Cc2ccccc2)CC[C@@]1(O)c1cccc(OC)c1)C([2H])([2H])[2H]` [II-3hydrochloride], at hERG potassium channel, the “hERG inhibition grade” value was “μM((Weak inhibition)” and the IC50 was found to be 14.7 µM.

On to `[2H]C([2H])([2H])N(C[C@@H]1CN(C(=O)Cc2cc(F)c(F)cc2F)CC[C@@]1(O)c1cccc(OC)c1)C([2H])([2H])[2H]` [II-9hydrochloride], for which, at hERG potassium channel, the “hERG inhibition grade” value is “μM((Weak inhibition)” and the IC50 amounted to 20.5 µM.

Take `COc1cccc([C@]2(O)CCN(S(=O)(=O)Cc3ccccc3)C[C@H]2CN(C)C)c1.Cl` [Example 20 of CN201911076305.X, reference compound]: in the series on Female Kunming mice, the “ED50 in mouse hot plate experiments” value is 0.49 mg/kg. Besides, the “hERG inhibition grade” value on hERG potassium channel (listed as Example 20 of patent CN201911076305.X, hydrochloride) was “moderate inhibitory effects on hERG”; on hERG potassium channel (listed as example 20 of the prior art CN201911076305.X, hydrochloride) it was “μM(Moderate intensity inhibition)”.

On to `[2H]C([2H])([2H])Oc1cccc([C@]2(O)CCN(C(=O)Cc3cc(F)c(F)cc3F)C[C@H]2CN(C([2H])([2H])[2H])C([2H])([2H])[2H])c1` [II-11hydrochloride], for which, at hERG potassium channel, the “hERG inhibition grade” value is reported as “μM((Weak inhibition)” and the IC50 worked out at 20.2 µM.
